This experiment deals with HCV replicon in HUH-7 cells. Briefly: HCV replicon FRET assay (EC50 confirmed in replicon luciferase reporter assay). Type of experiment: cell-based. The conditions noted are these: Hepatitis C virus, Huh-7, 96 h. From the text:
An HCV replicon whole cell system was established as described by Lohmann V, Korner F, Koch J, Herian U, Theilmann L, Bartenschlager R., Science 285(5424): 110-3 (1999). This system enabled us to evaluate the effects of our HCV Protease compounds on HCV RNA replication. Briefly, using the HCV strain 1b sequence described in the Lohmann paper (Assession number: AJ238799), an HCV cDNA was synthesized by Operon Technologies, Inc. (Alameda, Calif.), and the full-length replicon was then assembled in plasmid pGem9zf(+) (Promega, Madison, Wis.) using standard molecular biology techniques. […]
The HCV replicon FRET assay was developed to monitor the inhibitory effects of compounds described in the disclosure on HCV viral replication. […] After 4 days, cells were first assessed for cytotoxicity using alamar Blue (Trek Diagnotstic Systems) for a CC50 reading. The toxicity of compound (CC50) was determined by adding 1/10th volume of alamar Blue to the media incubating the cells. After 4 h, the fluorescence signal from each well was read, with an excitation wavelength at 530 nm and an emission wavelength of 580 nm, using the Cytofluor Series 4000 (Perspective Biosystems). […]

For `CO[C@@]1(c2ccc(-c3ccccc3)cc2)C[C@H]2C(=O)N[C@]3(C(=O)NS(=O)(=O)C4CC4)C[C@H]3/C=C\CCCCC[C@H](NC(=O)OC(C)(C)C)C(=O)N2C1` [Compound 1, tert-butyl (2R,6S,13aS,14aR,16aS,Z)-2-(biphenyl-4-yl)-14a-(cyclopropylsulfonylcarbamoyl)-2-methoxy-5,16-dioxo-1,2,3,5,6,7,10,11,13a,14,14a,15,16,16a-hexadecahydrocyclopropa[e]pyrrolo[1,2-a][1,4]diazacyclopentadecin-6-ylcarbamate], the response was half-maximal at 5 nM (EC50).

(Values after patent US7763584B2, “Hepatitis C virus inhibitors” (priority 2006, dated 2010).)
